System: HBG1 mRNA and HbF protein in bone marrow cells
Experiment: Induction of fetal hemoglobin by hydroxyurea and I-73 in human CD34+ cell reconstituted immunodeficient mice, with analysis of synergistic effect
Format: in vivo, NBSGW mice engrafted with human CD34+ cells
Protocol: The model employed for assessment of induction of fetal hemoglobin by I-73 and hydroxyurea involved the use of human stem cell-reconstituted immunodeficient mice. Specifically, three hundred thousand human CD34-positive cells from G-CSF-mobilized human peripheral blood […] (PBMCs) were injected into the tail veins of NOD.Cg-KitW-41J Tyr+Prkdcscid Il2rgtm1Wjl/ThomJ (NBSGW) mice (JAX Strain No. 026622) on day 0. Twelve weeks later, mice were checked for human cell engraftment by sampling PBMCs from blood taken from the tail vein and staining for expression of murine or human CD45 by flow cytometry. After removing from the study those mice having greater than 10% human cells or less than 1% human cells in their peripheral blood, the remaining mice were randomized into treatment groups based on the human cell percentage. Thirteen weeks post engraftment, treatment was initiated with either hydroxyurea, I-73, or a combination of both compounds. Hydroxyurea was formulated in PBS (pH 7.4) and I-73 was formulated in 5% Cremophor RH 40/20% hydroxypropyl-β-cyclodextrin (Crem-CD) daily. Mice received either PBS or hydroxyurea each morning and I-73 or Crem-CD each afternoon by oral gavage. After twenty days of daily treatment, the mice were euthanized and their bone marrow (femurs, tibia and critae) were individually collected for subsequent analysis.
Bone marrow cell pellets (total 500K cells) were lysed in 20 μL of RLT (QIAGEN, 79216) with 1×β-mercaptoethanol (Gibco, 21985-023) and H2O followed by hybridizations. Hybridizations were done in a total volume of 15 μL [3 μL of RNA lysate added to master mix of 12 μL probe A/B (purchased from IDT), capture probe/reporter probes (NanoString™, XT TagSet-24, 121000602), proteinase K (Fisher Scientific, E00491) and H2O suspended in hybridization buffer]. Samples were hybridized at 65° C. for 22 hr. Following hybridization, the tripartide complexes were purified, immobilized by nCounter Prep Station and imaged by Digital Analyzer (nCounter MAX/FLEX Analysis System), to generate digital counts of barcodes corresponding to each target in the multiplexed reaction. Labeled barcodes obtained from unamplified extracts were counted at 555 images or field of view (FOV). The barcode counts for each sample were recorded in Reporter Code Count (RCC) files that are imported into nSolver analysis software (provided with CodeSet by NS) for quality control evaluation.
To assess levels of fetal hemoglobin by AlphaLISA, cells (200 k bone marrow cells/well) were lysed by resuspending pellets in 200 μL of lysis buffer plus protease inhibitor cocktail (100×), mixed well and incubating at room temperature for 30 minutes on the plate shaker @300 RPMs. Samples were then diluted 1:10 in a new 96-well round bottom plate by taking 10 uL of lysate and adding 90 μL of AlphaLISA immunoassay buffer. To create the “reaction plate”, 20 μL of Acceptor Beads (50 ug/mL final concentration) was added to each well using a multi-channel pipet. 10 uL of diluted cell lysate was added to the wells and mixed well. 20 μL of AlphaLISA immunoassay buffer was added to each well. Biotinylated antibody (final concentration) was then added to each well. The reaction plate on then placed on a plate shaker at 300 rpm for one hour to incubate at room temperature. After the first incubation was complete, 50 μL of Donor Beads ([…] final concentration) was added to each well and mixed well, keeping the plate in the dark. The covered plate was placed on a shaker at 350 rpm for 30 minutes to incubate at room temperature. After incubation, all 100 uL in each to an AlphaPlate in the dark. Plates were read on a VictorNIVO using the “Alpha 96 Well” setting. Alpha reading was programmed as the default setting with emission at 700 ms and 575/110n. […]

CCN1C(=O)[C@@H](NC(=O)c2cccc(C(F)(F)F)c2)[C@@H](c2ccc(F)cc2)c2c([C@@H](C)NC#N)nn(-c3ccccc3)c21 [Compound I-73, N-((4S,5S)-3-((R)-1-cyanamidoethyl)-7-ethyl-4-(4-fluorophenyl)-6-oxo-1-phenyl-4,5,6,7-tetrahydro-1H-pyrazolo[3,4-b]pyridin-5-yl)-3-(trifluoromethyl)benzamide]
average increase of HbF % over vehicle (I-73 25 mg/kg alone, WLS ANOVA estimate): 1.11 | percentage of HbF protein by HPLC in GlyA-positive bone marrow cells (compared with vehicle treatment group, FIG. 7): significant increase | percentage of bone marrow cells expressing human CD45 (in vivo): did not alter | HbF level on a per erythroid progenitor (GlyA-positive) cell basis by AlphaLISA (treatment alone): induced increased levels of HbF
